Test results reported in ChEMBL document CHEMBL3817800, “Dihydropyrimidones: As novel class of β-glucuronidase inhibitors” (Bioorg Med Chem, 2016).

Key:
Beta-glucuronidase = target: T1, Beta-glucuronidase (Bos taurus, UniProt A3KMY8); assay: Inhibition of bovine liver beta-glucuronidase assessed as p-nitrophenol formation preincubated for 30 mins followed by p-nitrophenyl-beta-D-glucuronide addition by spectrophotometric method
T1 sequence (A3KMY8 whole entry): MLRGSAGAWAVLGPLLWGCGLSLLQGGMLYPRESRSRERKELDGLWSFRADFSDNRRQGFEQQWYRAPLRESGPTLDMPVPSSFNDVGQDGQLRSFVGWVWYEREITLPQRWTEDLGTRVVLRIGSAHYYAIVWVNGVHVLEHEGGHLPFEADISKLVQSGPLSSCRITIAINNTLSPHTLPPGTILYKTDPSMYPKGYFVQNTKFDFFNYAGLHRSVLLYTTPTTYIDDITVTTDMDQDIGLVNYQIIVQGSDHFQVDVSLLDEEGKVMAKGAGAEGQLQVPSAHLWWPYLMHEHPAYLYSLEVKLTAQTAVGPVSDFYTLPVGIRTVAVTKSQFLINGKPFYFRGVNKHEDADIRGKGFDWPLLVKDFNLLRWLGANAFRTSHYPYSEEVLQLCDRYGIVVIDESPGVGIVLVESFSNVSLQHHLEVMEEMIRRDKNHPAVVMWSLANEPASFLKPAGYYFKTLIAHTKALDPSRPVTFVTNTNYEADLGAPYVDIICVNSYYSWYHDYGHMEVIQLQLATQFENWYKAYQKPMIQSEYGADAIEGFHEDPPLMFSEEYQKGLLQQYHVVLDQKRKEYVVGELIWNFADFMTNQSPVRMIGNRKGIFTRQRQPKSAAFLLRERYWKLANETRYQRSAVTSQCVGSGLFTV

[1] = target: T2, Beta-glucuronidase (Bos taurus) (UniProt A3KMY8); assay: Potency index, ratio of D-saccharic acid 1,4-lactone IC50 to compound IC50 for bovine liver beta-glucuronidase
T2 sequence (whole entry): T1 sequence (A3KMY8 whole entry)

Structure (SMILES)	IC50 (Beta-glucuronidase; read-out: IC50) [µM]	IC50 (Beta-glucuronidase)	Ratio IC50 [1]
COC(=O)C1=C(C)NC(=O)NC1CC(C)C (stereo not given)	55.2	–	–
COC(=O)C1=C(C)NC(=O)NC1c1ccccc1 (stereo not given)	–	Not Active	–
CCOc1ccc(C2NC(=O)NC(C)=C2C(=O)OC)cc1 (stereo not given)	72.2	–	–
COC(=O)C1=C(C)NC(=O)NC1c1ccsc1 (stereo not given)	47.2	–	–
COC(=O)C1=C(C)NC(=O)NC1c1ccc2ccccc2c1 (stereo not given)	–	Not Active	–
COC(=O)C1=C(C)NC(=O)NC1c1ccc(N(C)C)cc1 (stereo not given)	49.2	–	–
COC(=O)C1=C(C)NC(=O)NC1c1cccc2ccccc12 (stereo not given)	48.2	–	–
COC(=O)C1=C(C)NC(=O)NC1c1ccc([N+](=O)[O-])cc1 (stereo not given)	49.1	–	–
COC(=O)C1=C(C)NC(=O)NC1c1ccc(OC)cc1 (stereo not given)	59.2	–	–
COC(=O)C1=C(C)NC(=O)NC1c1ccccc1OC (stereo not given)	59.2	–	–
COC(=O)C1=C(C)NC(=O)NC1c1ccc(OC)c(OCc2ccccc2)c1 (stereo not given)	–	Not Active	–
COC(=O)C1=C(C)NC(=O)NC1c1ccc(Br)cc1 (stereo not given)	64.1	–	–
COC(=O)C1=C(C)NC(=O)NC1c1cc(OC)ccc1OC (stereo not given)	61	–	–
COC(=O)C1=C(C)NC(=O)NC1c1cc(Br)c(OC)c(OC)c1 (stereo not given)	–	Not Active	–
CCC1NC(=O)NC(C)=C1C(=O)OC (stereo not given)	52.2	–	–
COC(=O)C1=C(C)NC(=O)NC1c1cccc(OC)c1OC (stereo not given)	54.2	–	–
COC(=O)C1=C(C)NC(=O)NC1c1ccccc1OCc1ccccc1 (stereo not given)	–	Not Active	–
COC(=O)C1=C(C)NC(=O)NC1c1ccc(C)o1 (stereo not given)	44.2	–	–
COC(=O)C1=C(C)NC(=O)NC1c1cccc(OCc2ccccc2)c1 (stereo not given)	–	Not Active	–
COC(=O)C1=C(C)NC(=O)NC1c1ccc(C(C)C)cc1 (stereo not given)	–	Not Active	–
COC(=O)C1=C(C)NC(=O)NC1c1ccc(OC)c(OC)c1 (stereo not given)	–	Not Active	–
CCCCC1NC(=O)NC(C)=C1C(=O)OC (stereo not given)	78.2	–	–

Further lines, results first:

IC50 (Beta-glucuronidase; read-out: IC50) [µM]	IC50 (Beta-glucuronidase)	Ratio IC50 [1]	Structure (SMILES)
18.2	–	–	COC(=O)C1=C(C)NC(=O)NC1c1cccs1 (stereo not given)
24.2	–	2	COC(=O)C1=C(C)NC(=O)NC1c1c(Cl)cccc1Cl (stereo not given)
33.1	–	–	COC(=O)C1=C(C)NC(=O)NC1c1ccc(C)s1 (stereo not given)
34.2	–	–	COC(=O)C1=C(C)NC(=O)NC1c1cc(OC)c(O)c(OC)c1 (stereo not given)
9.38	–	5	COC(=O)C1=C(C)NC(=O)NC1c1ccc(C(F)(F)F)cc1 (stereo not given)
34.2	–	–	COC(=O)C1=C(C)NC(=O)NC1c1ccc(Cl)cc1 (stereo not given)
44.2	–	–	COC(=O)C1=C(C)NC(=O)NC1c1ccccc1Cl (stereo not given)
22.1	–	–	COC(=O)C1=C(C)NC(=O)NC1c1ccc(F)c(OC)c1 (stereo not given)
15.2	–	> 3	COC(=O)C1=C(C)NC(=O)NC1c1cccc(O)c1 (stereo not given)
40.2	–	–	COC(=O)C1=C(C)NC(=O)NC1c1ccco1 (stereo not given)
18.2	–	–	COC(=O)C1=C(C)NC(=O)NC1c1ccc(OC)cc1F (stereo not given)
17.6	–	–	COC(=O)C1=C(C)NC(=O)NC1c1ccc(O)cc1 (stereo not given)
28.2	–	–	COC(=O)C1=C(C)NC(=O)NC1c1ccc(OC(C)=O)c(OC)c1 (stereo not given)
14.1	–	–	COC(=O)C1=C(C)NC(=O)NC1c1ccccc1F (stereo not given)
27.2	–	–	COC(=O)C1=C(C)NC(=O)NC1c1ccc(O)c(Cl)c1 (stereo not given)
